Source: patent publication US20060178307A1, “Modulation of NMDA receptor currents via orexin receptor and/or CRF receptor” (priority 2005, published 2006)
Entries after “also recorded” stand apart in the source; their conditions may differ. Where no end group is shown, it is not given here.

Assays:
[1] = test system: NMDAR-mediated EPSCs in VTA dopamine neurons; assay: Evoked NMDAR-mediated EPSCs, whole-cell voltage clamp at +40 mV, VTA neurons in midbrain slices; type: cell-based, rat; conditions: for effect on orexin A-mediated potentiation of NMDAR EPSCs: antagonist 1 μM, n=8 (FIG. 1C)
Experimental: Excitatory postsynaptic currents (EPSCs) were recorded from VTA neurons in rat midbrain slices. EPSCs were evoked while holding neurons in voltage clamp at +40 mV. Measurements were taken 20 ms after the stimulus artifact, a time point at which the glutamatergic EPSC is mediated purely by NMDARs.
The patch pipette was loaded with the PLC inhibitor, U-73122 (1 μM, FIG. 2A, C, n=6) or the PKC inhibitor, chelerythrin (1 μM, FIG. 1A, B, n=6). […] Next, the protein kinase A inhibitor, PKI (20 μM, FIG. 2A, F, n=8) or Rp-cAMPs, a blocker of cAMP (100 μM, FIG. 2A, E, n=5) was added to the patch pipette.
Activation of PKC is implicated in NMDAR-dependent long-term potentiation (Malinow et al., 1989) and it modulates NMDAR trafficking to the membrane (Lan et al., 2001; Scott et al., 2001; Fong et al., 2002). NMDARs can translocate from intracellular or extrasynaptic pools to synaptic sites (Lan et al., 2001; Tovar and Westbrook, 2002). […] In a separate group of slices, orexin A (100 nM, n=6) was applied for 5 min during the washout period.
All of the electrophysiological recordings were performed in rats ranging from P21 to P30. Briefly, rats were anesthetized with halothane and sacrificed. Horizontal sections of the VTA ([…]) were prepared with a vibratome (Leica, Nussloch, Germany). Slices were placed in a holding chamber and allowed to recover for at least 1 hour before being placed in the recording chamber and superfused with bicarbonate-buffered solution (ACSF) saturated with 95% O2/5% CO2 and containing (in mM): 119 NaCl, 1.6 KCl, 1.0 NaH2PO4, 1.3 MgCl2, 2.5 CaCl2, 26.2 NaHCO3 and 11 glucose (at 32-34° C.). Picrotoxin (100 μM) was added to block GABAA receptor-mediated inhibitory postsynaptic currents. Cells were visualized using infrared differential interference contrast video microscopy. Whole-cell voltage clamp recordings were made using an Axopatch 1D amplifier (Axon Instruments, Union City, Calif.). Electrodes (2.8-4.0 MΩ) contained (in mM): 120 Cesium Methansulfonate, 20 HEPES, 0.4 EGTA, 2.8 NaCl, 5 TEA-Cl, 2.5 MgATP, and 0.25 NaGTP, pH 7.2-7.3 (270-285 mOsm). Series resistance (10-40 MΩ) and input resistance were monitored on-line with a 4-mV depolarizing step (50 ms) given just after every afferent stimulus. Dopaminergic VTA neurons were identified by the presence of a large Ih current (Lacey et al., 1990; Johnson and North, 1992) and, in some cases, tyrosine hydroxylase labeling. A bipolar stimulating electrode was placed 100-300 μm rostral to the recording electrode and was used to stimulate excitatory afferents at 0.1 Hz. Neurons were voltage-clamped at −70 mV and +40 mV to record AMPAR- and NMDAR-mediated EPSCs.

locomotor activity = assay: Locomotor sensitization to cocaine, intra-VTA OXR1 antagonist, 7-day paradigm; type: in vivo, Sprague-Dawley rats
Experimental: Male Sprague-Dawley rats (250 grams) were implanted with bilateral cannulae directed at the VTA (AP, −5.2; ML, ±0.5, DV −8.0). Following recovery from surgery, animals were tested in a cocaine sensitization assay similar to that used for systemic administration of the OXR1 antagonist, but with two changes: a 7-day sensitization paradigm was used, and the OXR1 antagonist SB 334867 was microinjected directly into the VTA (6 μg/hemisphere in 300 nL solution composed of 10% DMSO in water). All other methods for habituation and data collection were identical to that described above. Rats were deeply anesthetized with pentobarbital, and perfused with a 10% formaldehyde solution. Brains were cryoprotected in 25% sucrose, 40 μm coronal sections were cut on a freezing microtome, and sections were mounted, dried and coverslipped. Injection sites were located under a light microscope and recorded on atlas figures adapted from Paxinos and Watson (1997).

AMPAR mEPSCs = assay: AMPAR-mediated miniature EPSCs (mEPSCs) in VTA neurons; type: cell-based, rat
Experimental: Next, to investigate whether AMPAR function and/or number was modified with orexin A treatment, AMPAR-mediated miniature EPSCs (mEPSCs) were examined (a standard method for determining the locus of synaptic change). Compared to untreated neurons, orexin A (100 nM) caused a significant increase in both amplitude (FIG. 6C,D,F) and frequency (FIG. 6C,E,G) 3-4 hours after application (24±1.6 pA; 2.4±0.5 Hz; n=7 vs control: 13±1.3 pA; 0.93±0.16 Hz; n=7; FIG. 6A), but not at 15 min (15±1.7 pA; 0.9±0.1 Hz; n=[…], FIG. 6B).
AMPAR mEPSCs were recorded in cells voltage-clamped at −70 mV in lidocaine (500 μM), APV (50 μM) and sucrose (100 mM). NMDAR mEPSCs were recorded at −40 mV in Mg2+-free external solution with lidocaine (500 μM), glycine (20 μM), and CNQX (10 μM). mEPSCs were collected using Clampex (Axon Instruments) and analyzed using Mini Analysis Program (Synaptosoft). Detection criteria were set at >10 pA, <1 ms rise-time, and <3 ms decay-time for AMPAR mEPSCs and >10 pA, <1 ms rise-time, and <10 ms decay-time for NMDAR mEPSCs. mEPSC traces were recorded while sampling every 10 μs, the images were filtered at 5 kHz. Averaged mEPSCs were constructed using Mini Analysis Program (Synaptosoft).

[2] = orexin A 100 nM in the presence of ifenprodil 3 μM, n=6
[3] = 3-4 hours after orexin A 100 nM, n=7
[4] = 3-4 hours after orexin A, APV 50 μM applied 3 min prior and during orexin, n=7
[5] = 15 min after orexin A 100 nM, n=6

Compound: Cc1nc2ccc(NC(=O)Nc3ccnc4cccnc34)cc2o1.Cl [SB 334867, 1-(2-methylbenzoxazol-6-yl)-3-[1,5]naphthyridin-4-yl urea hydrochloride]
- effect on orexin A-mediated potentiation of NMDAR EPSCs ([1]; hydrochloride): significantly inhibited
- effect on orexin A-mediated potentiation of NMDAR EPSCs ([1]; listed as SB 334857, hydrochloride): blocked
- development of locomotor sensitization to cocaine (locomotor activity; daily intra-VTA 6 μg/hemisphere prior to cocaine 15 mg/kg, 7 days): abolished
- mean locomotor distance on day 7 (locomotor activity; intra-VTA OXR1 antagonist 6 μg/hemisphere + cocaine): 19274±4559 cm
- expression of pre-existing cocaine sensitization (locomotor activity; single intra-VTA injection): did not affect

Compound: orexin A: neuropeptide synthesized in neurons of the LH; orexin receptor agonist selective for the OXR1 receptor (QPLPDCCRQKTCSCRLYELLHGAGNHAAGILTL; ends and bridges not checked; cysteine pairing not given here; UniProt O43612 34-66, looked up)
- response of neurons that did not express TH ([1]; 2 TH-negative neurons): neither responded
- NMDAR eEPSCs potentiated to a maximum of ([1]; 5 min co-application of orexin A 1 nM with CRF 10 nM, n=7): 123±12%
- NMDAR EPSC before orexin A ([1]; NR2A/C (NVP-AAM077 0.4 μM) and NR2B (ifenprodil 3 μM) inhibitors co-applied, n=6): 32±5%
- TH-containing neurons with potentiated NMDAR responses ([1]; biocytin-filled, tyrosine hydroxylase positive neurons): 7/8
- potentiation of NMDAR-mediated EPSCs ([1]; orexin A 1 nM (FIG. 1B), n=6): 5±1%
- potentiation of NMDARs ([1]; orexin A 1 nM (FIG. 14A), n=6): 5.7±1.6%
- potentiation of NMDAR-mediated EPSCs ([1]; orexin A 10 nM (FIG. 1B), n=6): 18±3%
- maximum current after MK-801 washout ([1]; orexin A 100 nM 5 min during washout of MK-801 10 μM, n=6): 40±17%
- potentiation of NMDAR-mediated EPSCs ([1]; orexin A 100 nM (FIG. 1B), n=6): 42±5%
- orexin A potentiation of NMDAR EPSCs ([1]; orexin A 100 nM after NVP-AAM077 0.4 μM and ifenprodil 3 μM co-application): largely inhibited; also recorded: blocked
- duration of potentiation after washout ([1]; orexin A 100 nM applied for 30 min): > 40 min
- potentiation of NMDAR EPSCs ([1]; orexin A 100 nM applied for 30 min, n=6): 74±16%
- potentiation of NMDAR-mediated EPSCs ([1]; orexin A 100 nM bath application 5 min (FIG. 1A), n=12): 49±9%
- maximum potentiation of NMDAR EPSCs ([1]; orexin A 100 nM in the presence of NVP-AAM077 0.4 μM, n=7): 20±6%
- effect on remaining current ([1]; orexin A 100 nM in the presence of NVP-AAM077, ifenprodil and PPDA): did not alter
- maximum amplitude, of baseline EPSCs [1, 2]: 107±16%
- potentiation of NMDAR-mediated EPSCs [1, 2]: 36%
- NMDAR EPSC after orexin A ([1]; orexin A 100 nM with NVP-AAM077 0.4 μM and ifenprodil 3 μM co-applied, n=6): 45±12%
- neurons with potentiation greater than 10% / neurons recorded ([1]; orexin A 100 nM, 5 min): 10/12
- maximum current after MK-801 and NMDA washout ([1]; orexin A 5 min during washout of MK-801 20 μM + NMDA 500 μM, n=6): 20±2%
- maximum potentiation of NMDARs ([1]; orexin A in the presence of Zn2+ (300 nM), n=5): 14±4%
- AMPAR mEPSC amplitude (AMPAR mEPSCs; [3]): 24±1.6 pA
- AMPAR mEPSC frequency (AMPAR mEPSCs; [3]): 2.4±0.5 Hz
- AMPAR mEPSC amplitude (AMPAR mEPSCs; [4]): 16±0.6 pA
- AMPAR mEPSC frequency (AMPAR mEPSCs; [4]): 1.6±0.3 Hz
- AMPAR mEPSC amplitude (AMPAR mEPSCs; [5]): 15±1.7 pA
- AMPAR mEPSC frequency (AMPAR mEPSCs; [5]): 0.9±0.1 Hz
